Article PMC8288134, “Synthesis, potential antitumor activity, cell cycle analysis, and multitarget mechanisms of novel hydrazones incorporating a 4-methylsulfonylbenzene scaffold: a molecular docking study” (Journal of Enzyme Inhibition and Medicinal Chemistry, 2021)
Where two headings read alike, the source gives them in different places.

Tests used:
HL-60(TB) [1] = tested on: HL-60(TB); parameters: method as in https://dtp.cancer.gov/dtpstandard/dwindex/index.jsp; details: reference drugs, ref https://dtp.cancer.gov/dtpstandard/dwindex/index.jsp; cited from earlier work
A549/ATCC = tested on: A549/ATCC; parameters: method as in https://dtp.cancer.gov/dtpstandard/dwindex/index.jsp; details: reference drugs, ref https://dtp.cancer.gov/dtpstandard/dwindex/index.jsp; cited from earlier work
NCI-H460 = tested on: NCI-H460; parameters: method as in https://dtp.cancer.gov/dtpstandard/dwindex/index.jsp; details: reference drugs, ref https://dtp.cancer.gov/dtpstandard/dwindex/index.jsp; cited from earlier work
HCT-116 = tested on: HCT-116; parameters: method as in https://dtp.cancer.gov/dtpstandard/dwindex/index.jsp; details: reference drugs, ref https://dtp.cancer.gov/dtpstandard/dwindex/index.jsp; cited from earlier work
SF-268 = tested on: SF-268; parameters: method as in https://dtp.cancer.gov/dtpstandard/dwindex/index.jsp; details: reference drugs, ref https://dtp.cancer.gov/dtpstandard/dwindex/index.jsp; cited from earlier work
ACHN = tested on: ACHN; parameters: method as in https://dtp.cancer.gov/dtpstandard/dwindex/index.jsp; details: reference drugs, ref https://dtp.cancer.gov/dtpstandard/dwindex/index.jsp; cited from earlier work
HS 578 T = tested on: HS 578 T; parameters: method as in https://dtp.cancer.gov/dtpstandard/dwindex/index.jsp; details: reference drugs, ref https://dtp.cancer.gov/dtpstandard/dwindex/index.jsp; cited from earlier work
MDA-MB-468 [2] = tested on: MDA-MB-468; parameters: method as in https://dtp.cancer.gov/dtpstandard/dwindex/index.jsp; details: reference drugs, ref https://dtp.cancer.gov/dtpstandard/dwindex/index.jsp; cited from earlier work
[3] = tested on: prostate cancer tumour cell lines; details: cited from earlier work; for GI50: read-out: GI50 (subpanel average), reference drugs, ref https://dtp.cancer.gov/dtpstandard/dwindex/index.jsp; for TGI (subpanel average): reference drugs, ref https://dtp.cancer.gov/dtpstandard/dwindex/index.jsp
[4] = tested on: breast cancer tumour cell lines; details: cited from earlier work; for GI50: read-out: GI50 (subpanel average), reference drugs, ref https://dtp.cancer.gov/dtpstandard/dwindex/index.jsp; for TGI (subpanel average): reference drugs, ref https://dtp.cancer.gov/dtpstandard/dwindex/index.jsp
HL-60(TB) [5] = assay: cells; assay type: cell-based, human; details: for inhibition at 10 µM: HL-60, HL-60(TB), read-out: Growth inhibition percentage (GI%)
NCI-H322M = assay: NCI antitumor screen (SRB); assay type: cell-based; details: Homo sapiens; for inhibition at 10 µM: read-out: Growth inhibition percentage (GI%)
KM12 = assay: NCI antitumor screen (SRB); assay type: cell-based; details: Homo sapiens; for inhibition at 10 µM: one dose 10 µM, read-out: Growth inhibition percentage (GI%)
MALME-3M = assay: NCI antitumor screen (SRB); assay type: cell-based; details: Homo sapiens; for inhibition at 10 µM: one dose 10 µM, read-out: Growth inhibition percentage (GI%)
IGROV1 = assay: NCI antitumor screen (SRB); assay type: cell-based; details: Homo sapiens; for inhibition at 10 µM: IGROV-1, one dose 10 µM, read-out: Growth inhibition percentage (GI%)
OVCAR-4 = assay: NCI antitumor screen (SRB); assay type: cell-based; details: Homo sapiens; for inhibition at 10 µM: one dose 10 µM, read-out: Growth inhibition percentage (GI%)
OVCAR-8 = assay: NCI antitumor screen (SRB); assay type: cell-based; details: Homo sapiens; for inhibition at 10 µM: one dose 10 µM, read-out: Growth inhibition percentage (GI%)
NCI/ADR-RES = assay: NCI antitumor screen (SRB); assay type: cell-based; details: Homo sapiens; for inhibition at 10 µM: one dose 10 µM, read-out: Growth inhibition percentage (GI%)
SK-OV-3 = assay: NCI antitumor screen (SRB); assay type: cell-based; details: Homo sapiens; for inhibition at 10 µM: one dose 10 µM, read-out: Growth inhibition percentage (GI%)
786-0 = assay: NCI antitumor screen (SRB); assay type: cell-based; details: Homo sapiens; for inhibition at 10 µM: one dose 10 µM, read-out: Growth inhibition percentage (GI%)
TK-10 = assay: NCI antitumor screen (SRB); assay type: cell-based; details: Homo sapiens, one dose 10 µM, read-out: Growth inhibition percentage (GI%)
UO-31 = assay: NCI antitumor screen (SRB); assay type: cell-based, human; details: for inhibition at 10 µM: read-out: Growth inhibition percentage (GI%)
PC-3 = assay: NCI antitumor screen (SRB); assay type: cell-based; details: Homo sapiens; for inhibition at 10 µM: one dose 10 µM, read-out: Growth inhibition percentage (GI%)
DU-145 = assay: NCI antitumor screen (SRB); assay type: cell-based; details: Homo sapiens; for inhibition at 10 µM: one dose 10 µM, read-out: Growth inhibition percentage (GI%)
MDA-MB-468 [6] = assay: NCI antitumor screen (SRB); assay type: cell-based; details: Homo sapiens; for inhibition at 10 µM: one dose 10 µM, read-out: Growth inhibition percentage (GI%)
HL60 cells = assay: Annexin V-FITC/PI apoptosis assay; assay type: cell-based, human; details: HL60, 10 µM, 24 h
Procedure: Apoptosis induction is the most important mechanism by which major chemotherapeutics kill cancer cells. Apoptosis causes cellular changes whereby the translocation of phosphatidylserine (PS) occurs through the plasma membrane from the inside to the outside. Annexin-V can bind to PS, which can be used as a sensitive probe for PS on the outer side of the plasma membrane. […] The AV/PI staining of HL60 cells was performed at a mixed molar concentration of 10 µM with compounds 6, 9, 16, and 20 for 24 h. Figure 4 and Table 5 show the results of treating HL60 cells with compounds 6, 9, 16, and 20 for 24 h.
According to our previous report, apoptosis induction was performed using the Leukaemia HL-60 cell line and well-established Annexin 5-FITC/PI detection kit. The cell line samples were analysed using FACSCalibur flow cytometer[40]^,[72]. […]
[(Ti-Tz)/Tz)] x 100 for concentration of which Ti ≤ Tz.
The induction of apoptosis was performed according to our previous report using Leukemia HL-
60 cell line and well-established Annexin 5-FITC/PI detection kit. The cell line samples were
analyzed using a FACSCalibur flow cytometer. […]

[7] = tested on: full panel of 59 cancer cell lines; assay: NCI antitumor screen, full panel; details: for PCE: positive cytotoxic effect (number of cell lines with GI 10 to 100% / total number of cell lines): one dose 10 µM
[8] = Homo sapiens, UO-31, one dose 10 µM
[9] = five concentrations 0.01-100 µM

COc1cc2ncnc(Nc3ccc(F)c(Cl)c3)c2cc1OCCCN1CCOCC1 [Gefitinib, gefitinib]
GI50 (HL-60(TB) [1]): 1000 nM | GI50 (A549/ATCC): 2510 nM | GI50 (NCI-H460): 3160 nM | GI50 (HCT-116): 3160 nM | GI50 (SF-268): 2510 nM | GI50 (ACHN): 158 nM | GI50 (HS 578 T): 7940 nM | GI50 (MDA-MB-468 [2]): 12.6 nM | GI50 [3]: 3290 nM | TGI (subpanel average) [3]: 31620 nM | GI50 [4]: 4670 nM | TGI (subpanel average) [4]: 18620 nM

CS(=O)(=O)c1ccc(C(=O)NN=Cc2cccc3ccccc23)cc1 [Compound 6, 4-(Methylsulfonyl)-N'-(naphthalen-1-ylmethylene)benzohydrazide]
inhibition at 10 µM (HL-60(TB) [5]; Homo sapiens, one dose 10 µM): 62.5% | inhibition at 10 µM (NCI-H322M; one dose 10 µM): < 10% | inhibition at 10 µM (KM12): 49.2% | inhibition at 10 µM (MALME-3M): 30.3% | inhibition at 10 µM (IGROV1): 36.8% | inhibition at 10 µM (OVCAR-4): < 10% | inhibition at 10 µM (OVCAR-8): 16.2% | inhibition at 10 µM (NCI/ADR-RES): 26.5% | inhibition at 10 µM (SK-OV-3): 21.9% | inhibition at 10 µM (786-0): < 10% | inhibition at 10 µM (TK-10): 14.9% | inhibition at 10 µM (UO-31; [8]): 21.5% | inhibition at 10 µM (PC-3): 21.2% | inhibition at 10 µM (DU-145): 11.2% | inhibition at 10 µM (MDA-MB-468 [6]): 25.8% | Apoptosis, early (HL60 cells): 3.52% | Apoptosis, late (HL60 cells): 7.64% | Apoptosis, total (annexin V-FITC positive cells) (HL60 cells): 12.57% | Necrosis (HL60 cells): 1.41% | PCE: positive cytotoxic effect (number of cell lines with GI 10 to 100% / total number of cell lines) [7]: 52/59

CS(=O)(=O)c1ccc(C(=O)N/N=C/c2ccccc2O)cc1 [Compound 16]
inhibition at 10 µM (HL-60(TB) [5]; Homo sapiens, one dose 10 µM): 93.7% | inhibition at 10 µM (NCI-H322M): 61.6% | inhibition at 10 µM (KM12): 65.9% | inhibition at 10 µM (MALME-3M): 36.5% | inhibition at 10 µM (IGROV1): 59% | inhibition at 10 µM (OVCAR-4): 56.3% | inhibition at 10 µM (OVCAR-8): 72.1% | inhibition at 10 µM (NCI/ADR-RES): 70.1% | inhibition at 10 µM (SK-OV-3): 60.1% | inhibition at 10 µM (786-0): 67% | inhibition at 10 µM (TK-10): 54.2% | inhibition at 10 µM (UO-31; [8]): 82% | inhibition at 10 µM (PC-3): 45.7% | inhibition at 10 µM (DU-145): 59.6% | inhibition at 10 µM (MDA-MB-468 [6]): 35.3% | Apoptosis, early (HL60 cells): 7.34% | Apoptosis, late (HL60 cells): 13.41% | Apoptosis, total (annexin V-FITC positive cells) (HL60 cells): 22.41% | Necrosis (HL60 cells): 1.66% | PCE: positive cytotoxic effect (number of cell lines with GI 10 to 100% / total number of cell lines) [7]: 59/59

CCN(CC)c1ccc(/C=N/NC(=O)c2ccc(S(C)(=O)=O)cc2)c(O)c1 [Compound 20]
Growth inhibition percentage (GI%) (HL-60(TB) [5]; HL-60(TB), one dose 10 µM): >100% | inhibition at 10 µM (HL-60(TB) [5]; Homo sapiens, one dose 10 µM): 100% | GI50 (HL-60(TB) [5]; Homo sapiens, HL-60(TB), five concentrations 0.01-100 µM): 164 nM | GI50 (NCI-H322M; [9]): 228 nM | inhibition at 10 µM (NCI-H322M; one dose 10 µM): 75% | GI50 (KM12; [9]): 404 nM | inhibition at 10 µM (KM12): 74.1% | GI50 (MALME-3M; [9]): 440 nM | inhibition at 10 µM (MALME-3M): 86% | GI50 (IGROV1; IGROV-1, five concentrations 0.01-100 µM): 196 nM | inhibition at 10 µM (IGROV1): 78.8% | GI50 (OVCAR-4; [9]): 63 nM | inhibition at 10 µM (OVCAR-4): 65.3% | GI50 (OVCAR-8; [9]): 250 nM | inhibition at 10 µM (OVCAR-8): 83.2% | GI50 (NCI/ADR-RES; [9]): 324 nM | inhibition at 10 µM (NCI/ADR-RES): 82.2% | GI50 (SK-OV-3; [9]): 251 nM | inhibition at 10 µM (SK-OV-3): 61% | GI50 (786-0; [9]): 182 nM | inhibition at 10 µM (786-0): 84.6% | inhibition at 10 µM (TK-10): 69.5% | inhibition at 10 µM (UO-31; Homo sapiens, UO-31, UO-31, one dose 10 µM): 100% | GI50 (UO-31; Homo sapiens, UO-31, five concentrations 0.01-100 µM): 139 nM | Growth inhibition percentage (GI%) (UO-31; UO-31, one dose 10 µM): >100% | GI50 (PC-3; [9]): 319 nM | inhibition at 10 µM (PC-3): 50.8% | GI50 (DU-145; [9]): 144 nM | inhibition at 10 µM (DU-145): 75.5% | GI50 (MDA-MB-468 [6]; [9]): 203 nM | inhibition at 10 µM (MDA-MB-468 [6]): 98.8% | Apoptosis, early (HL60 cells): 8.42% | Apoptosis, late (HL60 cells): 12.66% | Apoptosis, total (annexin V-FITC positive cells) (HL60 cells): 24.31% | Necrosis (HL60 cells): 3.23% | GI50 ([7]; Homo sapiens, read-out: GI50 (range over cell lines)): 63 to 11700 nM | GI50 ([7]; Homo sapiens, read-out: GI50 MG-MID (full panel mean-graph midpoint)): 260 nM | CC50 ([7]; Homo sapiens, read-out: LC50 MG-MID (full panel mean-graph midpoint)): > 100000 nM | TGI MG-MID (full panel mean-graph midpoint) ([7]; full panel): 46800 nM | PCE: positive cytotoxic effect (number of cell lines with GI 10 to 100% / total number of cell lines) [7]: 59/59 | fold more potent than 5-Fu ([7]; ratio of GI50 MG_MID): ~3 fold | fold more potent than celecoxib ([7]; ratio of GI50 MG_MID): ~65 fold | fold more potent than erlotinib ([7]; ratio of GI50 MG_MID): ~30 fold | fold more potent than gefitinib and sorafenib ([7]; ratio of GI50 MG_MID): ~9 fold

Cc1ccc(-c2cc(C(F)(F)F)nn2-c2ccc(S(N)(=O)=O)cc2)cc1 [Celecoxib, celecoxib]
GI50 (HL-60(TB) [1]): 15800 nM | GI50 (A549/ATCC): 15800 nM | GI50 (NCI-H460): 15800 nM | GI50 (SF-268): 15800 nM | GI50 (ACHN): 15800 nM | GI50 (HS 578 T): 20000 nM | GI50 [3]: 14200 nM | CC50 ([3]; read-out: LC50 (subpanel average), reference drugs, ref https://dtp.cancer.gov/dtpstandard/dwindex/index.jsp): 57000 nM | TGI (subpanel average) [3]: 28370 nM | GI50 [4]: 17500 nM | TGI (subpanel average) [4]: 34890 nM
